Data reported in patent US4251546A, “Process for killing internal helminths using certain 1,1-bis-(2-substituted-3-nitrophenyl)alkane or alkylene derivatives” (ICI Australia Limited, priority 1977, dated 1981).

Legend:
live Fasciola hepatica = assay: Minimum effective concentration against live Fasciola hepatica in Hedon-Fleig medium (Table 4); conditions: in vitro, assessed 24 hours after treatment, read-out: MINIMUM EFFECTIVE CONCENTRATION (minimum concentration required to kill Fasciola hepatica)
Protocol: The minimum effective concentration of compounds of formula I against live Fasciola hepatica was tested by the direct application of the test compound, in solution, to live Fasciola hepatica in Hedon-Fleig medium. The results are given in Table 4 where the minimum effective concentration (minimum concentration required to kill Fasciola hepatica) was assessed 24 hours after treatment with the test compound.

[1] = tested on: sheep liver fluke (Fasciola hepatica); assay: Fluke egg count in faeces and adult fluke count in liver of infected sheep after a single s/c dose (Table 3); type: in vivo; conditions: for POST MORTEM RESULT No. of adult fluke: liver
Protocol: Compositions suitable for use as experimental injectable solutions were prepared by formulating the compounds as solutions of their salts either in water or in a mixture of water and ethylene glycol or water and polyethylene glycol (PEG200).
Compositions prepared by the method of Example 10 were used as a single dose to test sheep infected with sheep liver fluke (Fasciola hepatica). The number of liver fluke eggs in the faeces was measured at the time of treatment and at selected intervals up to 30 days after treatment. The sheep were killed and the number of adult fluke in the liver counted. The amount and structure of the active ingredient in each composition and the results of treatment of a sheep with that composition are given in the Table 3 below. The compositions were administered by sub-cutaneous injection (s/c).

COc1cc(Cl)ccc1COC(c1cc(Cl)cc([N+](=O)[O-])c1O)c1cc(Cl)cc([N+](=O)[O-])c1O [Compound 43]
minimal effective concentration (live Fasciola hepatica): 5 µg/mL

CC(C)COC(c1cc(Cl)cc([N+](=O)[O-])c1O)c1cc(Cl)cc([N+](=O)[O-])c1O [Compound 24, bis(5-chloro-2-hydroxy-3-nitrophenyl)methyl isobutyl ether]
FAECAL EGG COUNT, day 7 ([1]; single dose 6.0 mg/kg): 20 Eggs/g faeces
FAECAL EGG COUNT, day 14 ([1]; single dose 6.0 mg/kg): 10 Eggs/g faeces
POST MORTEM RESULT No. of adult fluke ([1]; single dose 6.0 mg/kg): 0

O=[N+]([O-])c1cc(Cl)cc(C(OCCC(c2ccccc2)c2ccccc2)c2cc(Cl)cc([N+](=O)[O-])c2O)c1O [Compound 42]
minimal effective concentration (live Fasciola hepatica): 1 µg/mL

CC(c1cc(Cl)cc([N+](=O)[O-])c1O)c1cc(Br)cc([N+](=O)[O-])c1O (stereo not shown) [Compound 8, 1-(5-Bromo-2-hydroxy-3-nitrophenyl)-1-(5-chloro-2-hydroxy-3-nitrophenyl)ethane]
FAECAL EGG COUNT, day 7 ([1]; single dose 4.0 mg/kg): 110 Eggs/g faeces
FAECAL EGG COUNT, day 14 ([1]; single dose 4.0 mg/kg): 80 Eggs/g faeces
FAECAL EGG COUNT, day 7 ([1]; single dose 6.0 mg/kg): 20 Eggs/g faeces
FAECAL EGG COUNT, day 14 ([1]; single dose 6.0 mg/kg): 10 Eggs/g faeces
POST MORTEM RESULT No. of adult fluke ([1]; single dose 6.0 mg/kg): 0
FAECAL EGG COUNT, day 7 ([1]; single dose 8.0 mg/kg): 0 Eggs/g faeces
FAECAL EGG COUNT, day 14 ([1]; single dose 8.0 mg/kg): 0 Eggs/g faeces
POST MORTEM RESULT No. of adult fluke ([1]; single dose 8.0 mg/kg): 0
FAECAL EGG COUNT, day 7 ([1]; single dose 12.5 mg/kg): 0 Eggs/g faeces
FAECAL EGG COUNT, day 14 ([1]; single dose 12.5 mg/kg): 0 Eggs/g faeces
POST MORTEM RESULT No. of adult fluke ([1]; single dose 12.5 mg/kg): 0

O=[N+]([O-])c1cc(Cl)cc(C(c2cc(Cl)cc([N+](=O)[O-])c2O)C(Cl)(Cl)Cl)c1O [Compound 11]
FAECAL EGG COUNT, day 7 ([1]; single dose 5.0 mg/kg): 50 Eggs/g faeces
FAECAL EGG COUNT, day 14 ([1]; single dose 5.0 mg/kg): 0 Eggs/g faeces
POST MORTEM RESULT No. of adult fluke ([1]; single dose 5.0 mg/kg): 0

N#Cc1ccc(OC(c2cc(Cl)cc([N+](=O)[O-])c2O)c2cc(Cl)cc([N+](=O)[O-])c2O)cc1 [Compound 33]
minimal effective concentration (live Fasciola hepatica): 5 µg/mL

CC(c1cc(Br)cc([N+](=O)[O-])c1O)c1cc(Br)cc([N+](=O)[O-])c1O [Compound 9]
FAECAL EGG COUNT, day 7 ([1]; single dose 12.5 mg/kg): 0 Eggs/g faeces
FAECAL EGG COUNT, day 14 ([1]; single dose 12.5 mg/kg): 0 Eggs/g faeces
POST MORTEM RESULT No. of adult fluke ([1]; single dose 12.5 mg/kg): 0

O=[N+]([O-])c1cc(Cl)cc(C(c2cc(Cl)cc([N+](=O)[O-])c2O)C(F)(F)C(F)(F)C(F)(F)F)c1O [Compound 55]
FAECAL EGG COUNT, day 7 ([1]; single dose 2.0 mg/kg): 20 Eggs/g faeces
FAECAL EGG COUNT, day 14 ([1]; single dose 2.0 mg/kg): 0 Eggs/g faeces
POST MORTEM RESULT No. of adult fluke ([1]; single dose 2.0 mg/kg): 1
FAECAL EGG COUNT, day 7 ([1]; single dose 6.0 mg/kg): 50 Eggs/g faeces
FAECAL EGG COUNT, day 14 ([1]; single dose 6.0 mg/kg): 20 Eggs/g faeces
POST MORTEM RESULT No. of adult fluke ([1]; single dose 6.0 mg/kg): 0

CCCSC(c1cc(Cl)cc([N+](=O)[O-])c1O)c1cc(Cl)cc([N+](=O)[O-])c1O [Compound 45]
FAECAL EGG COUNT, day 7 ([1]; single dose 12.0 mg/kg): 10 Eggs/g faeces
FAECAL EGG COUNT, day 14 ([1]; single dose 12.0 mg/kg): 0 Eggs/g faeces
POST MORTEM RESULT No. of adult fluke ([1]; single dose 12.0 mg/kg): 1

O=[N+]([O-])c1cc(Cl)cc(Cc2cc(Cl)cc([N+](=O)[O-])c2O)c1O [Compound 1]
FAECAL EGG COUNT, day 7 ([1]; single dose 12.5 mg/kg): 0 Eggs/g faeces
FAECAL EGG COUNT, day 14 ([1]; single dose 12.5 mg/kg): 50 Eggs/g faeces
FAECAL EGG COUNT, day 30 ([1]; single dose 12.5 mg/kg, day 30): 0 Eggs/g faeces
POST MORTEM RESULT No. of adult fluke ([1]; single dose 12.5 mg/kg): 0

CCC(C)SC(c1cc(Cl)cc([N+](=O)[O-])c1O)c1cc(Cl)cc([N+](=O)[O-])c1O (stereo not shown) [Compound 47]
FAECAL EGG COUNT, day 7 ([1]; single dose 12.0 mg/kg): 10 Eggs/g faeces
FAECAL EGG COUNT, day 14 ([1]; single dose 12.0 mg/kg): 30 Eggs/g faeces

O=[N+]([O-])c1cc(Cl)cc(C(OCc2ccc(Cl)cc2)c2cc(Cl)cc([N+](=O)[O-])c2O)c1O [Compound 38]
minimal effective concentration (live Fasciola hepatica): 1 µg/mL

O=[N+]([O-])c1cc(Cl)cc(C(SCc2ccc(Cl)cc2)c2cc(Cl)cc([N+](=O)[O-])c2O)c1O [Compound 49]
minimal effective concentration (live Fasciola hepatica): 1.5 µg/mL

CC(C)(C)SC(c1cc(Cl)cc([N+](=O)[O-])c1O)c1cc(Cl)cc([N+](=O)[O-])c1O [Compound 46]
minimal effective concentration (live Fasciola hepatica): 0.5 µg/mL

O=[N+]([O-])c1cc(Cl)cc(C(Oc2ccccc2)c2cc(Cl)cc([N+](=O)[O-])c2O)c1O [Compound 32]
minimal effective concentration (live Fasciola hepatica): 5 µg/mL

O=[N+]([O-])c1cc(Cl)cc(C(OCc2ccc(F)cc2)c2cc(Cl)cc([N+](=O)[O-])c2O)c1O [Compound 40]
FAECAL EGG COUNT, day 7 ([1]; single dose 2.0 mg/kg): 0 Eggs/g faeces
FAECAL EGG COUNT, day 14 ([1]; single dose 2.0 mg/kg): 130 Eggs/g faeces
FAECAL EGG COUNT, day 7 ([1]; single dose 6.0 mg/kg): 0 Eggs/g faeces
FAECAL EGG COUNT, day 14 ([1]; single dose 6.0 mg/kg): 0 Eggs/g faeces
POST MORTEM RESULT No. of adult fluke ([1]; single dose 6.0 mg/kg): 0

CC(c1cc(Br)cc([N+](=O)[O-])c1O)c1cc(I)cc([N+](=O)[O-])c1O (stereo not shown) [Compound 10]
FAECAL EGG COUNT, day 7 ([1]; single dose 12.5 mg/kg): 10 Eggs/g faeces
FAECAL EGG COUNT, day 14 ([1]; single dose 12.5 mg/kg): 90 Eggs/g faeces
